# In patent US11981686B2, “Urea compound having substituent” (DAIICHI SANKYO COMPANY, LIMITED, priority 2019, dated 2024):
# Target: SIRT6 enzyme (Homo sapiens, UniProt Q8N6T7)
# Experiment: Measurement of deacetylation activity (SIRT6, AlphaLISA, H3K9(Ac) peptide)
# Format: biochemical
# Conditions: SIRT6 25 ng/mL, H3K9(Ac) biotin peptide 2 nM, NAD 10 μM, room temperature 30 minutes, duplicate
# How it was run: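 SIRT6 (25 ng/mL final) in Tris-HCl pH 8.0 buffer with compound (e.g. 0.046–100 μM final) reacted with biotin-H3K9(Ac) peptide (2 nM) and NAD+ (10 μM), 30 min, room temperature. Stopped with nicotinamide plus AlphaLISA anti-unmodified H3K9/K27 beads, 60 min; EC150 (150% relative activity) from sigmoidal fit.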
# Sequence of SIRT6 enzyme (Q8N6T7 whole entry, species assumed): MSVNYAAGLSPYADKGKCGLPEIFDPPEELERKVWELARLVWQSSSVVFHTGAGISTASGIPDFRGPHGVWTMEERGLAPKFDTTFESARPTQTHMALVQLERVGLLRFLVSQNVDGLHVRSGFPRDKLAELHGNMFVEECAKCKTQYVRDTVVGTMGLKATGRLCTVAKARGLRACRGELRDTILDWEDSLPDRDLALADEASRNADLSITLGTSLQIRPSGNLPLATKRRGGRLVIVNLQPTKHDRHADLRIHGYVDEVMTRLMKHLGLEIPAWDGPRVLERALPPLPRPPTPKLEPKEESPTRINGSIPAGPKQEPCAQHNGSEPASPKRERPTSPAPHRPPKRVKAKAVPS
row,Structure (SMILES),EC150 (the concentration of the compound showing a relative enzyme activity of 150%) [μm]
1,"COCCNC(=O)Nc1nc2c(s1)CN(c1nc(C3CC(F)(F)CCO3)no1)CC2 (centres unmarked) [Example 98, N-{5-[3-(4,4-difluorooxan-2-yl)-1,2,4-oxadiazol-5-yl]-4,5,6,7-tetrahydro[1,3]thiazolo[5,4-c]pyridin-2-yl}-N′-(2-methoxyethyl)urea]",2.6
2,"O=C(NCc1cncnc1)Nc1nc2c(s1)CN(c1nc(C3CCC(F)(F)CC3)no1)CC2 [Example 99, N-{5-[3-(4,4-difluorocyclohexyl)-1,2,4-oxadiazol-5-yl]-4,5,6,7-tetrahydro[1,3]thiazolo[5,4-c]pyridin-2-yl}-N′-[(pyrimidin-5-yl)methyl]urea]",1.1
3,"COc1cc(-c2noc(N3CCc4nc(NC(=O)NCc5nccn5C)sc4C3)n2)ccc1F [Example 100, N-{5-[3-(4-fluoro-3-methoxyphenyl)-1,2,4-oxadiazol-5-yl]-4,5,6,7-tetrahydro[1,3]thiazolo[5,4-c]pyridin-2-yl}-N′-[(1-methyl-1H-imidazol-2-yl)methyl]urea]",2.6
4,"O=C(NCc1cc[nH]c(=O)c1)Nc1nc2c(s1)CN(c1nc(C3CCC(F)(F)CC3)no1)CC2 [Example 101, N-{5-[3-(4,4-difluorocyclohexyl)-1,2,4-oxadiazol-5-yl]-4,5,6,7-tetrahydro[1,3]thiazolo[5,4-c]pyridin-2-yl}-N′-[(2-oxo-1,2-dihydropyridin-4-yl)methyl]urea]",1.1
5,"O=C(NCc1nnc[nH]1)Nc1nc2c(s1)CN(c1nc(C3CCC(F)(F)CC3)no1)CC2 [Example 102, N-{5-[3-(4,4-difluorocyclohexyl)-1,2,4-oxadiazol-5-yl]-4,5,6,7-tetrahydro[1,3]thiazolo[5,4-c]pyridin-2-yl}-N′-[(4H-1,2,4-triazol-3-yl)methyl]urea]",0.33
6,"O=C(NCc1ccc[nH]c1=O)Nc1nc2c(s1)CN(c1nc(C3CCC(F)(F)CC3)no1)CC2 [Example 103, N-{5-[3-(4,4-difluorocyclohexyl)-1,2,4-oxadiazol-5-yl]-4,5,6,7-tetrahydro[1,3]thiazolo[5,4-c]pyridin-2-yl}-N′-[(2-oxo-1,2-dihydropyridin-3-yl)methyl]urea]",1.8
7,"O=C(NCC1(O)CC1)Nc1nc2c(s1)CN(c1nc(C3CCC(F)(F)CC3)no1)CC2 [Example 104, N-{5-[3-(4,4-difluorocyclohexyl)-1,2,4-oxadiazol-5-yl]-4,5,6,7-tetrahydro[1,3]thiazolo[5,4-c]pyridin-2-yl}-N′-[(1-hydroxycyclopropyl)methyl]urea]",1.6
8,"O=C(Nc1nc2c(s1)CN(c1nc(C3CCC(F)(F)CC3)no1)CC2)NC1(CO)CC1 [Example 105, N-{5-[3-(4,4-difluorocyclohexyl)-1,2,4-oxadiazol-5-yl]-4,5,6,7-tetrahydro[1,3]thiazolo[5,4-c]pyridin-2-yl}-N′-[1-(hydroxymethyl)cyclopropyl]urea]",2
9,"Cn1cnc(CNC(=O)Nc2nc3c(s2)CN(c2nc(C4CCC(F)(F)CC4)no2)CC3)n1 [Example 106, N-{5-[3-(4,4-difluorocyclohexyl)-1,2,4-oxadiazol-5-yl]-4,5,6,7-tetrahydro[1,3]thiazolo[5,4-c]pyridin-2-yl}-N′-[(1-methyl-1H-1,2,4-triazol-3-yl)methyl]urea]",2.4
10,"COc1ccc(-c2noc(N3CCc4nc(NC(=O)NC5CCOCC5)sc4C3)n2)cc1 [Example 107, N-{5-[3-(4-methoxyphenyl)-1,2,4-oxadiazol-5-yl]-4,5,6,7-tetrahydro[1,3]thiazolo[5,4-c]pyridin-2-yl}-N′-oxan-4-ylurea]",2.3
11,"COc1cccc(-c2noc(N3CCc4nc(NC(=O)NC5CCOCC5)sc4C3)n2)c1 [Example 108, N-{5-[3-(3-methoxyphenyl)-1,2,4-oxadiazol-5-yl]-4,5,6,7-tetrahydro[1,3]thiazolo[5,4-c]pyridin-2-yl}-N′-oxan-4-ylurea]",2.4
12,"CNC(=O)Nc1nc2c(s1)C1COCC(C2)N1c1nnc(-c2cccc(C(F)F)c2)o1 (centres unmarked) [Example 109, N-(10-{5-[3-(difluoromethyl)phenyl]-1,3,4-oxadiazol-2-yl}-4,7,8,9-tetrahydro-5H-4,8-epiminooxocino[5,4-d][1,3]thiazol-2-yl)-N′-methylurea]",1.4
13,"CNC(=O)Nc1nc2c(s1)C1COCC(C2)N1c1nnc(-c2cccc(C(F)(F)F)c2)o1 (centres unmarked) [Example 110, N-methyl-N′-(10-{5-[3-(trifluoromethyl)phenyl]-1,3,4-oxadiazol-2-yl}-4,7,8,9-tetrahydro-5H-4,8-epiminooxocino[5,4-d][1,3]thiazol-2-yl)urea]",3.7
14,"CNC(=O)Nc1nc2c(s1)C1COCC(C2)N1c1nnc(-c2cccc(OC(C)(C)C)c2)o1 (centres unmarked) [Example 111, N-{10-[5-(3-tert-butoxyphenyl)-1,3,4-oxadiazol-2-yl]-4,7,8,9-tetrahydro-5H-4,8-epiminooxocino[5,4-d][1,3]thiazol-2-yl}-N′-methylurea]",2.2
15,"CNC(=O)Nc1nc2c(s1)C1COCC(C2)N1c1nc(-c2cccc(C(=O)C3CC3)c2)no1 (centres unmarked) [Example 112, N-(10-{3-[3-(cyclopropanecarbonyl)phenyl]-1,2,4-oxadiazol-5-yl}-4,7,8,9-tetrahydro-5H-4,8-epiminooxocino[5,4-d][1,3]thiazol-2-yl)-N′-methylurea]",1.4
16,"CNC(=O)Nc1nc2c(s1)C1COCC(C2)N1c1nnc(-c2cccc(C(=O)C3CCC3)c2)o1 (centres unmarked) [Example 113, N-(10-{5-[3-(cyclobutanecarbonyl)phenyl]-1,3,4-oxadiazol-2-yl}-4,7,8,9-tetrahydro-5H-4,8-epiminooxocino[5,4-d][1,3]thiazol-2-yl)-N′-methylurea]",2.6
17,O=C(NCC(F)(F)F)Nc1nc2c(s1)C1COCC(C2)N1c1nnc(-c2cccc(C(=O)C3CC3)c2)o1 (centres unmarked) [Example 114],2.4
18,"O=C(Nc1nc2c(s1)C1COCC(C2)N1c1nnc(-c2cccc(OC(F)F)c2)o1)N[C@H]1CCOC1 (stereo partly drawn) [Example 115, N-(10-{5-[3-(difluoromethoxy)phenyl]-1,3,4-oxadiazol-2-yl}-4,7,8,9-tetrahydro-5H-4,8-epiminooxocino[5,4-d][1,3]thiazol-2-yl)-N′-[(3S)-oxolan-3-yl]urea]",2
19,"CNC(=O)Nc1nc2c(s1)C1COCC(C2)N1c1ncc(-c2cccc(C(=O)C3CC3)c2F)o1 (centres unmarked) [Example 116, N-(10-{5-[3-(cyclopropanecarbonyl)-2-fluorophenyl]-1,3-oxazol-2-yl}-4,7,8,9-tetrahydro-5H-4,8-epiminooxocino[5,4-d][1,3]thiazol-2-yl)-N′-methylurea]",3.1
20,"CC(C)NC(=O)Nc1nc2c(s1)[C@@H]1COC[C@H](C2)N1c1nnc(-c2cccc(C(=O)C3CC3)c2)o1 [Example 117, N-[(4S,8S)-10-{5-[3-(cyclopropanecarbonyl)phenyl]-1,3,4-oxadiazol-2-yl}-4,7,8,9-tetrahydro-5H-4,8-epiminooxocino[5,4-d][1,3]thiazol-2-yl]-N′-propan-2-ylurea]",1
21,"CCc1cccc(-c2nnc(N3[C@@H]4COC[C@H]3c3sc(NC(=O)NC)nc3C4)o2)c1 [Example 118, N-{(4S,8S)-10-[5-(3-ethylphenyl)-1,3,4-oxadiazol-2-yl]-4,7,8,9-tetrahydro-5H-4,8-epiminooxocino[5,4-d][1,3]thiazol-2-yl}-N′-methylurea]",1.8
22,"CNC(=O)Nc1nc2c(s1)[C@@H]1COC[C@H](C2)N1c1nnc(-c2cccc(C(C)C)c2)o1 [Example 119, N-methyl-N′-[(4S,8S)-10-{5-[3-(propan-2-yl)phenyl]-1,3,4-oxadiazol-2-yl}-4,7,8,9-tetrahydro-5H-4,8-epiminooxocino[5,4-d][1,3]thiazol-2-yl]urea]",2.2
23,"CNC(=O)Nc1nc2c(s1)[C@@H]1COC[C@H](C2)N1c1nnc(-c2cccc(OC)c2)o1 [Example 120, N-{(4S,8S)-10-[5-(3-methoxyphenyl)-1,3,4-oxadiazol-2-yl]-4,7,8,9-tetrahydro-5H-4,8-epiminooxocino[5,4-d][1,3]thiazol-2-yl}-N′-methylurea]",2.4
24,"CCOc1cccc(-c2nnc(N3[C@@H]4COC[C@H]3c3sc(NC(=O)NC)nc3C4)o2)c1 [Example 121, N-{(4S,8S)-10-[5-(3-ethoxyphenyl)-1,3,4-oxadiazol-2-yl]-4,7,8,9-tetrahydro-5H-4,8-epiminooxocino[5,4-d][1,3]thiazol-2-yl}-N′-methylurea]",2.1
25,"CNC(=O)Nc1nc2c(s1)[C@@H]1COC[C@H](C2)N1c1nnc(-c2cccc(OC(C)C)c2)o1 [Example 122, N-methyl-N′-[(4S,8S)-10-(5-{3-[(propan-2-yl)oxy]phenyl}-1,3,4-oxadiazol-2-yl)-4,7,8,9-tetrahydro-5H-4,8-epiminooxocino[5,4-d][1,3]thiazol-2-yl]urea]",1.5
26,"CNC(=O)Nc1nc2c(s1)C1CN(C(=O)OC)CC(C2)N1c1nnc(-c2cccc(C(=O)C3CC3)c2)o1 (centres unmarked) [Example 123, Methyl 10-{5-[3-(cyclopropanecarbonyl)phenyl]-1,3,4-oxadiazol-2-yl}-2-[(methylcarbamoyl)amino]-4,7,8,9-tetrahydro-4,8-epimino[1,3]thiazolo[5,4-d]azocine-6(5H)-carboxylate]",0.66
